How the values were obtained:
Gingiva Fibroblasten [1] = test: WST-1 vitality test (metabolic activity); format: cell-based; settings: for Vitalität [%] Mittelwert: 24 h incubation, untreated control = 100 %, mean of 6
Description: Als Maß für die Vitalität kann die metabolische Aktivität von Gingiva Fibroblasten nach Inkubation mit Tocopherylacetat gemessen werden. Das chromogene Tetrazoliumsalz WST-1 wird durch stoffwechselaktive Succinatdehydrogenasen lebender Zellen reduktiv aufgespalten, wobei ein wasserlösliches Formazansalz entsteht. Durch UV/VIS-spektroskopische Vermessung der Absorptionsintensität kann die Konzentration der intermediär gebildeten Formazansalze bestimmt werden, welche in Korrelation zur Aktivität der Succinatdehydrogenase steht.
(§1) Der WST-Vitalitätstest wurde in einer 96-Well Mikrotiterplatte in 6-fach Bestimmung durchgeführt. Dafür wurde pro Well eine definierte Zellzahl von Gingiva Fibroplasten in einem Volumen von 50 µl (microliter) ausgesät. Anschließend wurde Tocopherylacetat in absteigenden Konzentrationen dazugegeben. Nach 24 Stunden Inkubation wurden 10 µl des in Medium verdünnten Tetrazolium-Salzes WST-1 zu jedem Ansatz pipettiert. Es folgte eine dreistündige Inkubation bei 37°C und 5 % Kohlenstoffdioxid, bevor die Absorption bei einer Wellenlänge von 450 nm (Referenzwellenlänge 650 nm) in einem Spektrometer (ELISA-Reader) gemessen wurde. Die Werte der unbehandelten Kontrolle wurden gleich 100 % gesetzt und die Werte der behandelten Proben darauf bezogen.
Für jede Tocopherylacetat-Konzentration wurde eine 6-fach Bestimmung durchgeführt, aus den 6 Messwerten wurde jeweils der Mittelwert gebildet.
as §1, with “37 °C” for “37°C”

Gingiva Fibroblasten [2] = test: ATP determination with ATPLite-M assay (cell energy content); format: cell-based
Description: ATP (Adenosintriphosphat) ist die universelle Speicherform für chemische Energie in Zellen. Die ATP-Bestimmung erfolgt mit Hilfe des ATPLiteTM-M Assays (Packard). Das Testprinzip dieses Assays beruht darauf, dass die Luciferase von Photinus pyralis eine Reaktion katalysiert, bei der in Gegenwart von ATP D-Luciferin in Oxyluciferin umgewandelt wird. Bei dieser Reaktion wird grünes Licht emittiert, das mit einem Luminometer gemessen werden kann. Das emittierte Biolumineszenzlicht ist proportional zur Menge des vorhandenen ATP. Zur Bestimmung der ATP-Aktivität in Gingiva Fibroblasten werden diese in geeigneter Weise unter Erhalt ihrer spezifischen Eigenschaften vorkultiviert (DE10162814) und in eine 96well-Zellkulturschale überführt. Die Behandlung mit dem Substanzgemisch erfolgte über 24 Stunden gegen eine unbehandelte Kontrolle. Anschließend wurden die Zellen mit jeweils 50 µl/Kavität eines im Testkit enthaltenen Lysepuffer für 5 min auf einem Schüttler lysiert. Danach wurden die Zellen für weitere 5 min mit jeweils 50 µl/Kavität mit der mitgelieferten Substratlösung auf dem Schüttler inkubiert und anschließend das Reaktionsgemisch in eine schwarze Mikrotiterplatte überführt. Nach einer Inkubationszeit von 10 min in der Dunkelheit erfolgte die Messung. Tabelle 2: Einfluss von Tocopherylacetat auf den Zellenergieinhalt

[3] = Fibroblast, 24 h, read-out: Vitalität [%] Mittelwert
[4] = low concentrations, Gingiva-Zellen, result in words

**Q.** What does the source list for `CC(=O)Oc1c(C)c(C)c2c(c1C)CCC(C)(CCCC(C)CCCC(C)CCCC(C)C)O2` (stereo not shown) [Tocopherylacetat]?
**A.** viability at 0.0005 % (Gingiva Fibroblasten [1]; [3]): 133%; viability at 0.001 % (Gingiva Fibroblasten [1]; [3]): 141%; viability at 0.005 % (Gingiva Fibroblasten [1]; [3]): 138%; viability at 0.01 % (Gingiva Fibroblasten [1]; [3]): 150%; Vitalität [%] Mittelwert (Gingiva Fibroblasten [1]; Konz. 0,01 Gew.-%): 150,5%; Vitalität [%] Mittelwert (Gingiva Fibroblasten [1]; Konz. 0,0005 Gew.-%): 132,9%; Vitalität [%] Mittelwert (Gingiva Fibroblasten [1]; Konz. 0,001 Gew.-%): 141,4%; Vitalität [%] Mittelwert (Gingiva Fibroblasten [1]; Konz. 0,005 Gew.-%): 137,7%; Vitalität (Gingiva Fibroblasten [1]; [4]): signifikanten Steigerung der Vitalität; activity at 0.01 % (Gingiva Fibroblasten [2]; Fibroblast, Konz. 0,01 Gew.-%, 24 h treatment, versus untreated control (100,0), read-out: ATP-Gehalt [%] Mittelwert): 128%; activity at 0.0025 % (Gingiva Fibroblasten [2]; Fibroblast, Konz. 0,0025 Gew.-%, 24 h treatment, versus untreated control (100,0), read-out: ATP-Gehalt [%] Mittelwert): 125%; activity at 0.005 % (Gingiva Fibroblasten [2]; Fibroblast, Konz. 0,005 Gew.-%, 24 h treatment, versus untreated control (100,0), read-out: ATP-Gehalt [%] Mittelwert): 139%; ATP-Gehalt (Gingiva Fibroblasten [2]; [4]): signifikanten Steigerung des ATP-Gehaltes
